These results are taken from US20080176857A1, “4-Piperazinnylthieno[2,3-d]Pyrimidine Compounds as Platelet Aggregation Inhibitors” (priority 2005, published 2008).

Where “and” joins values, the source holds several entries; their conditions need not be identical. Equal values may be shown once. Some results are limits rather than exact numbers.

The test addresses P2Y12 receptor (Homo sapiens, UniProt Q9H244). Kind of test: [33P]-2MeS-ADP binding to recombinant human P2Y12 membranes (Assay 3). Further details: expressed in transfected cells; host or cells: HEK cells. The note with it: for IC50 / Ki: HEK cell membranes expressing human P2Y12, competition with 33P 2MeS-ADP. Here is the method: 3. Human P2Y12 Recombinant Cell Membrane Binding Assay with ^33P 2MeS-ADP.
The ability of a test compound to bind to the P2Y12 receptor was evaluated in a recombinant cell membrane binding assay. In this competitive binding assay, the test compound competed against a radiolabelled agonist for binding to the P2Y12 receptor, expressed on the cell membrane. Inhibition of binding of the labeled material was measured and correlated to the amount and potency of the test compound. Data from this assay are presented in Table F. This binding assay is a modification of the procedure in Takasaki, J. et. al, Mol. Pharmacol., 2001, Vol. 60, pg. 432.
HEK cells were transfected with the pDONR201P2Y12 vector and cultured in MEM with GlutaMAX I, Earle's salts, 25 mM HEPES (Gibco # 42360-032) containing 10% dialyzed FBS (Gibco # 26400-044), 100 μM nonessential amino acids (Gibco # 11140-050), 1 mM sodium pyruvate (Gibco # 11360-070), 0.05% geneticin (Gibco #10131-027), 3 μg/mL blasticidin (Fluka brand from Sigma # 15205), and 0.5 μg/mL puromycin (Sigma # P-8833).
Confluent cells were washed once with cold DPBS (Gibco # 14190-136). Fresh DPBS was added and the cells were scraped and centrifuged at 500×g for 5 minutes at 4° C. The cell pellets were resuspended in TEE buffer (25 mM Tris, 5 mM EDTA, 5 mM EGTA) containing 1 protease inhibitor cocktail tablet (Roche # 1 873 580) per 50 mL (called TEE+Complete) and can be flash frozen at this point.
In one embodiment, frozen cell pellets were used to prepare the membranes. In that embodiment, the frozen cell pellets were thawed on ice. In another embodiment, cell pellets may be used without flash freezing before moving on to the next step.
Cell pellets were resuspended in TEE buffer+Complete and homogenized in a glass dounce for 12 strokes. The cell suspension was centrifuged at 500×g for 5 minutes at 4° C. The supernatant was saved and centrifuged at 20,000×g for 20 minutes at 4° C. This supernatant was discarded and the cell pellet resuspended in TEE buffer+Complete and homogenized in a glass dounce for 12 strokes. This suspension was centrifuged at 20,000×g for 20 minutes at 4° C. and the supernatant discarded. The pellet was resuspended in assay buffer (50 mM Tris, 100 mM NaCl, 1 mM EDTA) containing one protease inhibitor cocktail tablet per 50 mL, and can be flash frozen as 1 mL aliquots at this point.
Dry compounds were diluted as 10 mM DMSO stocks and tested in a seven-point, three-fold dilution series run in triplicate beginning at 10 μM, final concentration. A 1 mM DMSO intermediate stock was made in a dilution plate and from this the seven dilutions were made to 5× the final concentration in assay buffer containing 0.02% BSA.
The plates were incubated at room temperature for 1 hour. The reaction was stopped using a cell harvester to transfer the reaction mixture onto GF/B UniFilter plates (Perkin Elmer # 6005177), and washed three times with wash buffer (50 mM Tris), filtering between each wash. The filter plates were dried for approximately 20 minutes in an oven at 50° C. Back seals were adhered to the filter plates and 25 uL of Microscint 20 scintillation fluid (Perkin Elmer # 6013621) were added. The filter plates were sealed, shaken for 30 minutes, and counted on a Top Count. Data were analyzed using a four-parameter curve fit with a fixed minimum and maximum experimentally defined as the average positive and negative controls on each plate, and with a hill slope equal to one.
The table below presents the IC50, Ki, and percent inhibition values for compounds tested in either washed human platelets membrane binding assay (assay #1 above) or recombinant cell membrane binding assay (Assay #3, above). Example number refers to the compound prepared as described in the example noted in the section Working Examples, above. The highest concentration of candidate compound tested is listed for each experimental run presented. […]

Where [1] appears, read: at highest concentration tested, 10 μM.
[2] abbreviates: at highest concentration tested, 1 μM.

P2Y12 receptor, sequence (Q9H244 whole entry): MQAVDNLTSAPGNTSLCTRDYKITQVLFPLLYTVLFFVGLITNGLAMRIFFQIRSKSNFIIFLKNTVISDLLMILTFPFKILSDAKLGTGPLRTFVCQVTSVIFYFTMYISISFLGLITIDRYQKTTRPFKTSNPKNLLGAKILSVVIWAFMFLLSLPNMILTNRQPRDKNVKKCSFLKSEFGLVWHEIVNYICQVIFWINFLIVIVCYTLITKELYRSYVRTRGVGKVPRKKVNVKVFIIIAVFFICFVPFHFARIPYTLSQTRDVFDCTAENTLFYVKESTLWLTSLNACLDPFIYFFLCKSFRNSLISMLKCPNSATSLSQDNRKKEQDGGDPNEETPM

What is called IC50 is the point on the concentration scale where inhibition reaches its midpoint. As a reminder, the Ki is a measure of affinity in units of concentration, obtained from inhibition or displacement. As usually defined, the % Inhibition is the percentage by which the read-out fell short of the control. Broadly, the inhibition is the drop in the measured response relative to a control, in per cent. `CCc1cc2c(N3CCN(C(=O)Cc4ccccc4)CC3)nc(SCC(C)O)nc2s1` (stereo not drawn) [Example 17, 1-({6-Ethyl-4-[4-(phenylacetyl)piperazin-1-yl]thieno[2,3-d]pyrimidin-2-yl}thio)propan-2-ol]: the IC50 was 500 nM and 530 nM; the Ki was 290 nM and 310 nM. Also, under setting [1], the “% Inhibition” value is 87.05% and the inhibition at 10 µM was determined as 90.6%.
For the molecule `CCc1cc2c(N3CCN(C(=O)Cc4ccccc4)CC3)nc(SCCN(C)C)nc2s1` [Example 88, N-[2-({6-ethyl-4-[4-(phenylacetyl)piperazin-1-yl]thieno[2,3-d]pyrimidin-2-yl}thio)ethyl]-N,N-dimethylamine], the IC50 was 1680 nM and 1480 nM and 640 nM and 370 nM and 1200 nM; the Ki was 913 nM and 848 nM and 370 nM and 210 nM and 700 nM. In addition, under setting [1], the “% Inhibition” value was 80.30% and 84.54% and 89.14% and 82.41%; the inhibition at 10 µM stood at 94.1%.
Consider `CCc1cc2c(N3CCN(C(=O)CC(=O)OC)CC3)nc(SCC(=O)OC)nc2s1` [Example 44, Methyl 3-(4-{6-ethyl-2-[(2-methoxy-2-oxoethyl)thio]thieno[2,3-d]pyrimidin-4-yl}piperazin-1-yl)-3-oxopropanoate], for which the IC50 was determined as 4030 nM and the Ki was 2690 nM. Moreover, the inhibition at 10 µM under setting [1] worked out at 63.6%.
In the same order, the values of `CCc1cc2c(N3CCN(C(=O)CCC(=O)OC)CC3)nc(SCC(=O)OC)nc2s1` [Example 42, Methyl 4-(4-{6-ethyl-2-[(2-methoxy-2-oxoethyl)thio]thieno[2,3-d]pyrimidin-4-yl}piperazin-1-yl)-4-oxobutanoate] are 5740 nM, 3830 nM and 52.3%.
The matching figures for `C#CCCCCC(=O)N1CCN(c2nc(SCC(=O)OC)nc3sc(CC)cc23)CC1` [Example 36, Methyl {[6-ethyl-4-(4-hept-6-ynoylpiperazin-1-yl)thieno[2,3-d]pyrimidin-2-yl]thio}acetate]: 220 nM, 150 nM and 97.6%.
With `CCc1cc2c(N3CCN(C(=O)c4ccc(-c5ccccc5)cc4)CC3)nc(Cl)nc2s1` [Example 21, 4-[4-(1,1′-Biphenyl-4-ylcarbonyl)piperazin-1-yl]-2-chloro-6-ethylthieno[2,3-d]pyrimidine], the concentration for half-maximal inhibition (IC50) was 22 nM and 10 nM and 20 nM and 43 nM; the Ki was 12 nM and 10 nM and 25 nM. Under setting [2], the “% Inhibition” value is listed as 95.00% and the inhibition at 1 µM was 91.9%. Besides, under setting [1], the “% Inhibition” value worked out at 98.24% and the inhibition at 10 µM came to 95.8%.
With `CCc1cc2c(N3CCN(C(=O)c4ccc(-c5ccccc5)cc4)CC3)nc(SC(C)C(C)=O)nc2s1` (stereo not drawn) [Example 29, 3-({4-[4-(1′-Biphenyl-4-ylcarbonyl)piperazin-1-yl]-6-ethylthieno[2,3-d]pyrimidin-2-yl}thio)butan-2-one], the IC50 came out at 160 nM and the Ki stood at 91 nM. In addition, the inhibition at 10 µM under setting [1] came out at 82.2%.
`CCc1cc2c(N3CCN(C(=O)Cc4ccccc4)CC3)nc(SCCO)nc2s1` [Example 87, 2-({6-ethyl-4-[4-(phenylacetyl)piperazin-1-yl]thieno[2,3-d]pyrimidin-2-yl}thio)ethanol]: the IC50 is 570 nM and 590 nM and 200 nM and 320 nM; the Ki was 310 nM and 337 nM and 110 nM and 180 nM.
As for `CCc1cc2c(N3CCN(C(=O)c4ccc(-c5csnn5)cc4)CC3)nc(SCC(=O)OC)nc2s1` [Example 66, Methyl [(6-ethyl-4-{4-[4-(1,2,3-thiadiazol-4-yl)benzoyl]piperazin-1-yl}thieno[2,3-d]pyrimidin-2-yl)thio]acetate], the IC50 came out at 450 nM and the inhibition constant Ki turned out to be 270 nM. For the same molecule, the inhibition at 10 µM under setting [1] worked out at 74.6%.
With `CCc1cc2c(N3CCN(C(=O)c4cccc(C#N)c4)CC3)nc(SCC(=O)OC)nc2s1` [Example 64, Methyl ({4-[4-(3-cyanobenzoyl)piperazin-1-yl]-6-ethylthieno[2,3-d]pyrimidin-2-yl}thio)acetate], the IC50 was 157 nM and 417 nM and 330 nM; the Ki was 94 nM and 252 nM and 212 nM. In addition, under setting [1], the “% Inhibition” value is 81.22% and 90.29%; the inhibition at 10 µM turned out to be 91.3%.
On to `CCc1cc2c(N3CCN(C(=O)c4ccc(-c5ccccc5)cc4)CC3)nc(SCC(O)CO)nc2s1` (stereo not drawn) [Example 28, 3-({4-[4-(1,1′-Biphenyl-4-ylcarbonyl)piperazin-1-yl]-6-ethylthieno[2,3-d]pyrimidin-2-yl}thio)propane-1,2-diol], for which the IC50 is 38 nM and the Ki stood at 22 nM. Further, the inhibition at 10 µM under setting [1] was found to be 94.3%.
Consider `CCc1cc2c(N3CCN(C(=O)c4ccc5ccccc5c4)CC3)nc(SCC(=O)OC)nc2s1` [Example 55, Methyl ({6-ethyl-4-[4-(2-naphthoyl)piperazin-1-yl]thieno[2,3-d]pyrimidin-2-yl}thio)acetate], for which the IC50 was determined as 1470 nM and the Ki turned out to be 980 nM. Also, the inhibition at 10 µM under setting [1] worked out at 61.2%.
Turning to `C=CCSc1nc(N2CCN(C(=O)Cc3ccccc3)CC2)c2cc(CC)sc2n1` [Example 10, 2-(Allylthio)-6-ethyl-4-[4-(phenylacetyl)piperazin-1-yl]thieno[2,3-d]pyrimidine], the IC50 was 990 nM and 550 nM; the Ki was 570 nM and 330 nM. Besides, under setting [1], the “% Inhibition” value stood at 79.53% and the inhibition at 10 µM came to 82.3%.
Turning to `CCc1cc2c(N3CCN(C(=O)c4ccc(N(C)C)cc4)CC3)nc(SCC(=O)OC)nc2s1` [Example 54, Methyl [(4-{4-[4-(dimethylamino)benzoyl]piperazin-1-yl}-6-ethylthieno[2,3-d]pyrimidin-2-yl)thio]acetate], the IC50 is 6190 nM and 4440 nM; the inhibition constant Ki was 3560 nM and 2960 nM. Moreover, under setting [1], the “% Inhibition” value worked out at 61.77% and the inhibition at 10 µM was 47.8%.
For the molecule `CCc1cc2c(N3CCN(C(=O)c4c(-c5ccc(OC)cc5)noc4C)CC3)nc(SCC(=O)OC)nc2s1` [Example 68, Methyl {[6-ethyl-4-(4-{[3-(4-methoxyphenyl)-5-methylisoxazol-4-yl]carbonyl}piperazin-1-yl)thieno[2,3-d]pyrimidin-2-yl]thio}acetate], the IC50 worked out at 6420 nM and the Ki turned out to be 3880 nM. The inhibition at 10 µM under setting [1] turned out to be 96.4%.
With `CCc1cc2c(N3CCN(C(=O)Cc4ccccc4)CC3)nc(SCC(=O)Nc3ccc4ccccc4c3)nc2s1` [Example 9, 2-({6-Ethyl-4-[4-(phenylacetyl)piperazin-1-yl]thieno[2,3-d]pyrimidin-2-yl}thio)-N-2-naphthylacetamide], the IC50 was > 10000 nM and 9300 nM; the inhibitory constant (Ki) is > 5900 nM and 5400 nM.
As to `CCc1cc2c(N3CCN(C(=O)c4ccc(C(=O)OC)cc4)CC3)nc(SCC(=O)OC)nc2s1` [Example 80, Methyl 4-[(4-{6-ethyl-2-[(2-methoxy-2-oxoethyl)thio]thieno[2,3-d]pyrimidin-4-yl}piperazin-1-yl)carbonyl]benzoate], the IC50 was 3780 nM and the Ki was determined as 2450 nM. Also, the inhibition at 10 µM under setting [1] is 60%.
`CCc1cc2c(N3CCN(C(=O)c4cccc(C)c4)CC3)nc(SCC(=O)OC)nc2s1` [Example 61, Methyl ({6-ethyl-4-[4-(3-methylbenzoyl)piperazin-1-yl]thieno[2,3-d]pyrimidin-2-yl}thio)acetate]: the IC50 came to 1910 nM and the Ki came out at 1240 nM. The inhibition at 10 µM under setting [1] came out at 78.5%.
In the same order, the values of `CCc1cc2c(N3CCN(C(=O)c4ccc5c(c4)OCC5)CC3)nc(SCC(=O)OC)nc2s1` [Example 67, Methyl ({4-[4-(2,3-dihydro-1-benzofuran-6-ylcarbonyl)piperazin-1-yl]-6-ethylthieno[2,3-d]pyrimidin-2-yl}thio)acetate] are 1230 nM, 740 nM and 79.7%.
